Results taken from patent US10584115B2, “Substituted pyridine and pyrazine BMI-1 inhibitors” (PTC Therapeutics, Inc., priority 2013, dated 2020).

The compounds below were run on Bmi-1 protein (assay: Sandwich ELISA Assay (Bmi-1 protein level in HT-1080 cells after compound treatment)). Details: Table 1, Bmi-1 sandwich ELISA, read-out: ELISA EC50 value for Bmi-1 protein.
Assay type: cell-based
Summary of the method: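 HT-1080 cells exposed to compounds for 40–48 h at 37 °C (0.5% DMSO final), then lysed. Bmi-1 in lysates measured by sandwich ELISA (mouse monoclonal capture, rabbit anti-Bmi-1 detection, HRP anti-rabbit, TMB), read at OD450 with OD570 reference against a recombinant Bmi-1 standard curve (0–8000 pg/mL).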

Question: With `Cc1nc2ccc(OC(F)(F)F)cc2n1-c1cncc(Nc2ccc(C(F)(F)F)cc2)n1` [compound 357, 6-[2-methyl-6-(trifluoromethoxy)-1H-benzimidazol-1-yl]-N-[4-(trifluoromethyl)phenyl]pyrazin-2-amine] as the compound, how does the EC50 read?
Answer: The EC50 was 100 to 3000 nM.

Question: With `Cc1nc2cccc(F)c2n1-c1cncc(Nc2ccc(C(F)(F)F)cc2)n1` [compound 358, 6-(7-fluoro-2-methyl-1H-benzimidazol-1-yl)-N-[4-(trifluoromethyl)phenyl]pyrazin-2-amine] as the compound, how does the EC50 read?
Answer: Its EC50 is 10 to 100 nM.

Question: How did the EC50 turn out when `Cc1nc2cc(F)c(F)cc2n1-c1cc(C#N)cc(Nc2ccc(C(F)(F)F)c(F)c2)n1` [compound 359, 2-(5,6-difluoro-2-methyl-1H-benzimidazol-1-yl)-6-{[3-fluoro-4-(trifluoromethyl)phenyl]amino}pyridine-4-carbonitrile] was run?
Answer: The EC50 was 100 to 3000 nM.

Question: `Cc1nc2ncccc2n1-c1cncc(NC2=CCC(F)(C(F)(F)F)C=C2)n1` (stereo not shown) [compound 360, N-[4-fluoro-4-(trifluoromethyl)phenyl]-6-(2-methyl-1H-imidazo[4,5-b]pyridin-1-yl)pyrazin-2-amine] was tested. Which EC50 did it give?
Answer: Its EC50 is 10 to 100 nM.

Question: Which EC50 does the source give for `Cc1nc2ncc(Cl)cc2n1-c1cncc(Nc2ccc(C(F)(F)F)cc2)n1` [compound 361, 6-(6-chloro-2-methyl-1H-imidazo[4,5-b]pyridin-1-yl)-N-[4-(trifluoromethyl)phenyl]pyrazin-2-amine] here?
Answer: Its EC50 is 1 to 10 nM.

Question: `Nc1cc(Nc2ccc(C(F)(F)F)c(F)c2)nc(-c2c(C3CC3)nc3ccc(F)cn23)c1` [compound 364, 6-(2-cyclopropyl-6-fluoroimidazo[1,2-a]pyridin-3-yl)-N^2-[3-fluoro-4-(trifluoromethyl)phenyl]pyridine-2,4-diamine] was tested. Which EC50 did it give?
Answer: Its EC50 is 10 to 100 nM.

Question: With `CCc1nc2cnccc2n1-c1cncc(Nc2ccc(C(F)(F)F)cc2)n1` [compound 370, 6-(2-ethyl-1H-imidazo[4,5-c]pyridin-1-yl)-N-[4-(trifluoromethyl)phenyl]pyrazin-2-amine] as the compound, how does the EC50 read?
Answer: The EC50 was 100 to 3000 nM.

Question: Which EC50 does the source give for `Cc1nc2ncncc2n1-c1cncc(Nc2ccc(C(F)(F)F)cc2)n1` [compound 371, 6-(8-methyl-7H-purin-7-yl)-N-[4-(trifluoromethyl)phenyl]pyrazin-2-amine] here?
Answer: Its EC50 is 100 to 3000 nM.

Question: `Cc1nc2ncc(F)cc2n1-c1cncc(Nc2ccc(C(F)(F)F)c(F)c2)n1` [compound 373, 6-(6-fluoro-2-methyl-1H-imidazo[4,5-b]pyridin-1-yl)-N-[3-fluoro-4-(trifluoromethyl)phenyl]pyrazin-2-amine] was tested. Which EC50 did it give?
Answer: The EC50 was 10 to 100 nM.

Question: With `CCc1nc2ncc(F)cc2n1-c1cncc(Nc2ccc(C(F)(F)F)c(F)c2)n1` [compound 374, 6-(2-ethyl-6-fluoro-1H-imidazo[4,5-b]pyridin-1-yl)-N-[3-fluoro-4-(trifluoromethyl)phenyl]pyrazin-2-amine] as the compound, how does the EC50 read?
Answer: The EC50 was 10 to 100 nM.

Question: `C=CCN1CCc2c(nc(C)n2-c2cncc(Nc3ccc(C(F)(F)F)cc3)n2)C1` [compound 375] was tested. Which EC50 did it give?
Answer: The EC50 was 100 to 3000 nM.

Question: How did the EC50 turn out when `COc1ccc2nc(C)c(-c3cncc(Nc4ccc(C(F)(F)F)cc4)n3)n2c1` [compound 376, 6-(6-methoxy-2-methylimidazo[1,2-a]pyridin-3-yl)-N-[4-(trifluoromethyl)phenyl]pyrazin-2-amine] was run?
Answer: The EC50 was 10 to 100 nM.

Question: For `COc1ccc2nc(C)c(-c3cncc(Nc4ccc(OC(F)(F)F)cc4)n3)n2c1` [compound 377, 6-(6-methoxy-2-methylimidazo[1,2-a]pyridin-3-yl)-N-[4-(trifluoromethoxy)phenyl]pyrazin-2-amine], which EC50 is on record?
Answer: Its EC50 is 10 to 100 nM.

Question: `Cc1nc2ccc(O)cn2c1-c1cncc(Nc2ccc(C(F)(F)F)cc2)n1` [compound 378, 2-methyl-3-(6-{[4-(trifluoromethyl)phenyl]amino}pyrazin-2-yl)imidazo[1,2-a]pyridin-6-ol] was tested. Which EC50 did it give?
Answer: The EC50 was 10 to 100 nM.

Question: For `COc1ccc2nc(C)c(-c3cc(C#N)cc(Nc4ccc(C(F)(F)F)cc4)n3)n2c1` [compound 379, 2-(6-methoxy-2-methylimidazo[1,2-a]pyridin-3-yl)-6-{[4-(trifluoromethyl)phenyl]amino}pyridine-4-carbonitrile], which EC50 is on record?
Answer: The EC50 was 10 to 100 nM.

Question: `COc1ccc2nc(C)c(-c3cc(C#N)cc(Nc4ccc(OC(F)(F)F)cc4)n3)n2c1` [compound 380, 2-(6-methoxy-2-methylimidazo[1,2-a]pyridin-3-yl)-6-{[4-(trifluoromethoxy)phenyl]amino}pyridine-4-carbonitrile] was tested. Which EC50 did it give?
Answer: Its EC50 is 10 to 100 nM.

Question: For `Cc1nc2ccc(O)cn2c1-c1cc(C#N)cc(Nc2ccc(C(F)(F)F)cc2)n1` [compound 381, 2-(6-hydroxy-2-methylimidazo[1,2-a]pyridin-3-yl)-6-{[4-(trifluoromethyl)phenyl]amino}pyridine-4-carbonitrile], which EC50 is on record?
Answer: The EC50 was 10 to 100 nM.

Question: For `N#Cc1cc(Nc2ccc(C(F)(F)F)cc2)nc(-c2c(CO)nc3ccc(F)cn23)c1` [compound 383, 2-[6-fluoro-2-(hydroxymethyl)imidazo[1,2-a]pyridin-3-yl]-6-{[4-(trifluoromethyl)phenyl]amino}pyridine-4-carbonitrile], which EC50 is on record?
Answer: The EC50 was 10 to 100 nM.

Question: `FC(F)(F)c1ccc(Nc2cncc(-c3ccnc4ccccc34)n2)cc1` [compound 384, 6-(quinolin-4-yl)-N-[4-(trifluoromethyl)phenyl]pyrazin-2-amine] was tested. Which EC50 did it give?
Answer: Its EC50 is 100 to 3000 nM.

Question: How did the EC50 turn out when `FC(F)(F)c1ccc(Nc2cncc(-c3ccnc4cc(Cl)ccc34)n2)cc1` [compound 385, 6-(7-chloroquinolin-4-yl)-N-[4-(trifluoromethyl)phenyl]pyrazin-2-amine] was run?
Answer: The EC50 was 100 to 3000 nM.

Question: With `Cc1cc2nc(C)n(-c3cncc(Nc4ccc(C(F)(F)F)cc4)n3)c2cc1C` [compound 386, N-[4-(trifluoromethyl)phenyl]-6-(2,5,6-trimethyl-1H-benzimidazol-1-yl)pyrazin-2-amine] as the compound, how does the EC50 read?
Answer: Its EC50 is 100 to 3000 nM.

Question: Which EC50 does the source give for `Cc1cc2nc(C)n(-c3cncc(Nc4ccc(OC(F)(F)F)cc4)n3)c2cc1C` [compound 387, N-[4-(trifluoromethoxy)phenyl]-6-(2,5,6-trimethyl-1H-benzimidazol-1-yl)pyrazin-2-amine] here?
Answer: Its EC50 is 100 to 3000 nM.

Question: For `Cc1nc2ccc(Br)cc2n1-c1cncc(Nc2ccc(C(F)(F)F)cc2)n1` [compound 388, 6-(6-bromo-2-methyl-1H-benzimidazol-1-yl)-N-[4-(trifluoromethyl)phenyl]pyrazin-2-amine], which EC50 is on record?
Answer: The EC50 was 10 to 100 nM.

Question: With `Cc1nc2ccccc2n1-c1cncc(Nc2ccc(C(F)(F)F)c(Cl)c2)n1` [compound 390, N-[3-chloro-4-(trifluoromethyl)phenyl]-6-(2-methyl-1H-benzimidazol-1-yl)pyrazin-2-amine] as the compound, how does the EC50 read?
Answer: The EC50 was 10 to 100 nM.

Question: For `N#Cc1cc(Nc2ccc(OC(F)F)cc2)nc(-c2c(CO)nc3ccc(F)cn23)c1` [compound 393, 2-{[4-(difluoromethoxy)phenyl]amino}-6-[6-fluoro-2-(hydroxymethyl)imidazo[1,2-a]pyridin-3-yl]pyridine-4-carbonitrile], which EC50 is on record?
Answer: The EC50 was 10 to 100 nM.

Question: How did the EC50 turn out when `N#Cc1cc(Nc2ccc(OC(F)F)c(F)c2)nc(-c2c(CO)nc3ccc(F)cn23)c1` [compound 394, 2-{[4-(difluoromethoxy)-3-fluorophenyl]amino}-6-[6-fluoro-2-(hydroxymethyl)imidazo[1,2-a]pyridin-3-yl]pyridine-4-carbonitrile] was run?
Answer: The EC50 was 10 to 100 nM.

Question: For `N#Cc1cc(Nc2ccc(C(F)(F)F)c(F)c2)nc(-c2c(CO)nc3ccc(F)cn23)c1` [compound 395, 2-[6-fluoro-2-(hydroxymethyl)imidazo[1,2-a]pyridin-3-yl]-6-{[3-fluoro-4-(trifluoromethyl)phenyl]amino}pyridine-4-carbonitrile], which EC50 is on record?
Answer: The EC50 was 100 to 3000 nM.

Question: With `Cc1nc2ccc(O)cn2c1-c1cc(C#N)cc(Nc2ccc(OC(F)(F)F)cc2)n1` [compound 396, 2-(6-hydroxy-2-methylimidazo[1,2-a]pyridin-3-yl)-6-{[4-(trifluoromethoxy)phenyl]amino}pyridine-4-carbonitrile] as the compound, how does the EC50 read?
Answer: The EC50 was 10 to 100 nM.

Question: Which EC50 does the source give for `Cc1nc2ccc(NCCO)cc2n1-c1cncc(Nc2ccc(C(F)(F)F)cc2)n1` [compound 397, 2-{[2-methyl-1-(6-{[4-(trifluoromethyl)phenyl]amino}pyrazin-2-yl)-1H-benzimidazol-6-yl]amino}ethanol] here?
Answer: The EC50 was 100 to 3000 nM.

Question: Which EC50 does the source give for `CCc1nc2c(n1-c1cncc(Nc3ccc(C(F)(F)F)cc3)n1)CN(C)CC2` [compound 398, 6-(2-ethyl-5-methyl-4,5,6,7-tetrahydro-3H-imidazo[4,5-c]pyridin-3-yl)-N-[4-(trifluoromethyl)phenyl]pyrazin-2-amine] here?
Answer: Its EC50 is 100 to 3000 nM.

Question: Which EC50 does the source give for `COCCn1nc(C)c(-c2cncc(Nc3ccc(C(F)(F)F)cc3)n2)c1C` [compound 399, 6-[1-(2-methoxyethyl)-3,5-dimethyl-1H-pyrazol-4-yl]-N-[4-(trifluoromethyl)phenyl]pyrazin-2-amine] here?
Answer: The EC50 was 1 to 10 nM.

Question: `Cc1nc2cc(F)c(F)cc2n1-c1cncc(Nc2ccc(Cl)nc2)n1` [compound 405, N-(6-chloropyridin-3-yl)-6-(5,6-difluoro-2-methyl-1H-benzimidazol-1-yl)pyrazin-2-amine] was tested. Which EC50 did it give?
Answer: Its EC50 is 100 to 3000 nM.

Question: Which EC50 does the source give for `FC1CCc2nc(C(F)(F)F)c(-c3cncc(Nc4ccc(C(F)(F)F)cc4)n3)n2C1` (stereo not shown) [compound 406, 6-[6-fluoro-2-(trifluoromethyl)-5,6,7,8-tetrahydroimidazo[1,2-a]pyridin-3-yl]-N-[4-(trifluoromethyl)phenyl]pyrazin-2-amine] here?
Answer: The EC50 was 10 to 100 nM.

Question: For `FC(F)(F)c1ccc(Nc2cncc(-c3cccc4[nH]ccc34)n2)cc1` [compound 407, 6-(1H-indol-4-yl)-N-[4-(trifluoromethyl)phenyl]pyrazin-2-amine], which EC50 is on record?
Answer: Its EC50 is 100 to 3000 nM.

Question: With `Cc1cc(Nc2cncc(-n3c(C)nc4ccccc43)n2)ccc1C(F)(F)F` [compound 408, 6-(2-methyl-1H-benzimidazol-1-yl)-N-[3-methyl-4-(trifluoromethyl)phenyl]pyrazin-2-amine] as the compound, how does the EC50 read?
Answer: The EC50 was 10 to 100 nM.

Question: How did the EC50 turn out when `COC1CCc2nc(C)c(-c3cncc(Nc4ccc(C(F)(F)F)cc4)n3)n2C1` (stereo not shown) [compound 409, 6-(6-methoxy-2-methyl-5,6,7,8-tetrahydroimidazo[1,2-a]pyridin-3-yl)-N-[4-(trifluoromethyl)phenyl]pyrazin-2-amine] was run?
Answer: The EC50 was 1 to 10 nM.

Question: `Fc1ccc2nc(C(F)(F)F)c(-c3cccc(Nc4ccc(C(F)(F)F)cc4)n3)n2c1` [compound 411, 6-[6-fluoro-2-(trifluoromethyl)imidazo[1,2-a]pyridin-3-yl]-N-[4-(trifluoromethyl)phenyl]pyridin-2-amine] was tested. Which EC50 did it give?
Answer: Its EC50 is 10 to 100 nM.
